Reference: patent publication US20250333388A1, “OXADIAZOLONE COMPOUNDS AND HERBICIDAL COMPOSITIONS AND USES THEREOF” (SHANDONG BINNONG TECHNOLOGY CO., LTD., priority 2023, published 2025)

Tests used:
Type in all cases: in vivo
rice = test: Safety testing on rice, stem and leaf spray in greenhouse; conditions: for Rice (%) safety (crop damage): stem and leaf spray
Protocol: (§1) The seeds of corn and rice were sown into nutrient soil in plastic cups, respectively, then covered with soil, compacted, watered, and further cultivated in a greenhouse by conventional methods. The stems and leaves of the crops were sprayed when the crops reached the 2- to 3-leaf stage. The test compounds of the present application were dissolved in acetone, followed by addition of Tween 80. The solution was then diluted with a certain amount of water to a certain solubility, and sprayed onto the plants using a spray tower. The test was repeated three times. After drying naturally in the shade, the plants were put in a greenhouse and managed according to conventional methods. The growth and development of corn and rice were observed, and the safety of the test agent on corn and rice was checked visually periodically. A safety grading standard was represented by 0-100%, with “O” representing no damage to crops, and “100%” representing complete killing or severe inhibition of crops.

corn = test: Safety testing on corn, stem and leaf spray in greenhouse; conditions: for Corn (%) safety (crop damage): stem and leaf spray
Protocol: as §1

barnyard grass = test: Test of herbicidal activity, post-seedling stem and leaf spray in greenhouse, barnyard grass; conditions: for herbicidal activity against barnyard grass compared with Control compounds A, B and C: at different doses, summary of Table 5; for Barnyard grass (%) control effect: post-seedling stem and leaf spray
Protocol: (§2) Seeds of broadleaf weeds (abutilon, Solanum nigrum) or gramineous weeds (crabgrass, barnyard grass) were sown into nutrient soil in plastic cups, respectively, and then covered with soil, compacted, watered, and further cultivated in a greenhouse by conventional methods. The stems and leaves of the weeds were sprayed when the weeds reached the 2- to 3-leaf stage. The test compounds of the present application were dissolved in acetone respectively, followed by addition of Tween 80. The solution was diluted with a certain amount of water to a certain solubility, and then sprayed onto the plants using a spray tower. The test was repeated three times. After drying naturally in the shade, the plants were put in a greenhouse and managed according to conventional methods. The growth and development of weeds were observed, and the control effect of the test agent on weeds was checked visually periodically, which was expressed by 0-100%, with “0” representing no control effect, and “100%” representing complete killing or severe inhibition.

abutilon = test: Test of herbicidal activity, post-seedling stem and leaf spray in greenhouse, abutilon; conditions: for herbicidal activity against abutilon compared with Control compounds A, B and C: at different doses, summary of Table 5; for Abutilon (%) control effect: post-seedling stem and leaf spray
Protocol: as §2

crabgrass = test: Test of herbicidal activity, post-seedling stem and leaf spray in greenhouse, crabgrass; conditions: for herbicidal activity against crabgrass compared with Control compounds A, B and C: at different doses, summary of Table 5; for Crabgrass (%) control effect: post-seedling stem and leaf spray
Protocol: as §2

Solanum nigrum = test: Test of herbicidal activity, post-seedling stem and leaf spray in greenhouse, Solanum nigrum; conditions: for herbicidal activity against Solamum nigrum compared with Control compounds A, B and C: at different doses, summary of Table 5; for Solanum nigrum (%) control effect: post-seedling stem and leaf spray
Protocol: as §2

[1] = at different doses, as compared to Control compounds A, B, and C, summary of Table 6
[2] = dose 300 g a.i/ha, 0 = no control effect, 100% = complete killing or severe inhibition

Cc1nn(Cc2c(S(=O)(=O)C(C)C)ccc(C(=O)c3c(C)nn(C)c3O)c2Cl)c(=O)o1 [Compound 100, 1,3-dimethyl-4-{2-chloro-3-[(5-methyl-2-oxo-1,3,4-oxadiazol-3 (2H)yl)methyl]-4-isopropylsulfonylbenzoyl}-5-hydroxypyrazole]
inhibitory effect on rice (crop safety) (rice; [1]): no significant inhibitory effect | Rice (%) safety (crop damage) (rice; dose 37.5 g a.i/ha): 0% | Rice (%) safety (crop damage) (rice; dose 75 g a.i/ha): 0% | Rice (%) safety (crop damage) (rice; dose 150 g a.i/ha): 0% | Rice (%) safety (crop damage) (rice; dose 300 g a.i/ha): 2% | inhibitory effect on corn (crop safety) (corn; [1]): no significant inhibitory effect | Corn (%) safety (crop damage) (corn; dose 37.5 g a.i/ha): 0% | Corn (%) safety (crop damage) (corn; dose 75 g a.i/ha): 0% | Corn (%) safety (crop damage) (corn; dose 150 g a.i/ha): 0% | Corn (%) safety (crop damage) (corn; dose 300 g a.i/ha, 0 = no damage to crops, 100% = complete killing or severe inhibition): 0%

Cc1nn(Cc2c(S(C)(=O)=O)ccc(C(=O)c3c(C)nn(C)c3OC(=O)c3cn(C)nc3C(F)(F)F)c2Cl)c(=O)o1 [Compound 166]
herbicidal activity against barnyard grass compared with Control compounds A, B and C (barnyard grass): better herbicidal activities | Barnyard grass (%) control effect (barnyard grass; dose 37.5 g a.i/ha): 55% | Barnyard grass (%) control effect (barnyard grass; dose 75 g a.i/ha): 80% | Barnyard grass (%) control effect (barnyard grass; dose 150 g a.i/ha): 85% | Barnyard grass (%) control effect (barnyard grass; dose 300 g a.i/ha): 90% | herbicidal activity against abutilon compared with Control compounds A, B and C (abutilon): better herbicidal activities | Abutilon (%) control effect (abutilon; dose 37.5 g a.i/ha): 65% | Abutilon (%) control effect (abutilon; dose 75 g a.i/ha): 88% | Abutilon (%) control effect (abutilon; dose 150 g a.i/ha): 92% | Abutilon (%) control effect (abutilon; [2]): 95% | herbicidal activity against crabgrass compared with Control compounds A, B and C (crabgrass): better herbicidal activities | Crabgrass (%) control effect (crabgrass; dose 37.5 g a.i/ha): 50% | Crabgrass (%) control effect (crabgrass; dose 75 g a.i/ha): 75% | Crabgrass (%) control effect (crabgrass; dose 150 g a.i/ha): 80% | Crabgrass (%) control effect (crabgrass; dose 300 g a.i/ha): 85% | herbicidal activity against Solamum nigrum compared with Control compounds A, B and C (Solanum nigrum): better herbicidal activities | Solanum nigrum (%) control effect (Solanum nigrum; dose 37.5 g a.i/ha): 60% | Solanum nigrum (%) control effect (Solanum nigrum; dose 75 g a.i/ha): 85% | Solanum nigrum (%) control effect (Solanum nigrum; dose 150 g a.i/ha): 90% | Solanum nigrum (%) control effect (Solanum nigrum; dose 300 g a.i/ha): 93%

Cc1nn(Cc2c(S(C)(=O)=O)ccc(C(=O)c3c(C)nn(C)c3OC(=O)c3c(C(F)(F)F)nn(C)c3Cl)c2Cl)c(=O)o1 [Compound 204]
herbicidal activity against barnyard grass compared with Control compounds A, B and C (barnyard grass): better herbicidal activities | Barnyard grass (%) control effect (barnyard grass; dose 37.5 g a.i/ha): 50% | Barnyard grass (%) control effect (barnyard grass; dose 75 g a.i/ha): 70% | Barnyard grass (%) control effect (barnyard grass; dose 150 g a.i/ha): 85% | Barnyard grass (%) control effect (barnyard grass; dose 300 g a.i/ha): 90% | herbicidal activity against abutilon compared with Control compounds A, B and C (abutilon): better herbicidal activities | Abutilon (%) control effect (abutilon; dose 37.5 g a.i/ha): 55% | Abutilon (%) control effect (abutilon; dose 75 g a.i/ha): 80% | Abutilon (%) control effect (abutilon; dose 150 g a.i/ha): 90% | Abutilon (%) control effect (abutilon; [2]): 98% | herbicidal activity against crabgrass compared with Control compounds A, B and C (crabgrass): better herbicidal activities | Crabgrass (%) control effect (crabgrass; dose 37.5 g a.i/ha): 45% | Crabgrass (%) control effect (crabgrass; dose 75 g a.i/ha): 64% | Crabgrass (%) control effect (crabgrass; dose 150 g a.i/ha): 80% | Crabgrass (%) control effect (crabgrass; dose 300 g a.i/ha): 88% | herbicidal activity against Solamum nigrum compared with Control compounds A, B and C (Solanum nigrum): better herbicidal activities | Solanum nigrum (%) control effect (Solanum nigrum; dose 37.5 g a.i/ha): 52% | Solanum nigrum (%) control effect (Solanum nigrum; dose 75 g a.i/ha): 70% | Solanum nigrum (%) control effect (Solanum nigrum; dose 150 g a.i/ha): 90% | Solanum nigrum (%) control effect (Solanum nigrum; dose 300 g a.i/ha): 97%

Cc1nn(Cc2c(S(C)(=O)=O)ccc(C(=O)c3c(C)nn(C)c3OC(=O)c3cnn(C)c3Cl)c2Cl)c(=O)o1 [Compound 218]
herbicidal activity against barnyard grass compared with Control compounds A, B and C (barnyard grass): better herbicidal activities | Barnyard grass (%) control effect (barnyard grass; dose 37.5 g a.i/ha): 50% | Barnyard grass (%) control effect (barnyard grass; dose 75 g a.i/ha): 70% | Barnyard grass (%) control effect (barnyard grass; dose 150 g a.i/ha): 85% | Barnyard grass (%) control effect (barnyard grass; dose 300 g a.i/ha): 90% | herbicidal activity against abutilon compared with Control compounds A, B and C (abutilon): better herbicidal activities | Abutilon (%) control effect (abutilon; dose 37.5 g a.i/ha): 55% | Abutilon (%) control effect (abutilon; dose 75 g a.i/ha): 80% | Abutilon (%) control effect (abutilon; dose 150 g a.i/ha): 90% | Abutilon (%) control effect (abutilon; [2]): 95% | herbicidal activity against crabgrass compared with Control compounds A, B and C (crabgrass): better herbicidal activities | Crabgrass (%) control effect (crabgrass; dose 37.5 g a.i/ha): 45% | Crabgrass (%) control effect (crabgrass; dose 75 g a.i/ha): 65% | Crabgrass (%) control effect (crabgrass; dose 150 g a.i/ha): 80% | Crabgrass (%) control effect (crabgrass; dose 300 g a.i/ha): 85% | herbicidal activity against Solamum nigrum compared with Control compounds A, B and C (Solanum nigrum): better herbicidal activities | Solanum nigrum (%) control effect (Solanum nigrum; dose 37.5 g a.i/ha): 50% | Solanum nigrum (%) control effect (Solanum nigrum; dose 75 g a.i/ha): 70% | Solanum nigrum (%) control effect (Solanum nigrum; dose 150 g a.i/ha): 90% | Solanum nigrum (%) control effect (Solanum nigrum; dose 300 g a.i/ha): 95%
